Test results: patent US20260217767A1, “NOVEL A4B7 THIOETHER PEPTIDE DIMER ANTAGONISTS” (Protagonist Therapeutics, Inc., priority 2014, published 2026)
Where a SMILES comes first, the peptide text is derived from it.

Biological target: T1, RPMI 8866 cells (Homo sapiens, UniProt P13612+P26010)
T1 sequence (P13612 34-1032): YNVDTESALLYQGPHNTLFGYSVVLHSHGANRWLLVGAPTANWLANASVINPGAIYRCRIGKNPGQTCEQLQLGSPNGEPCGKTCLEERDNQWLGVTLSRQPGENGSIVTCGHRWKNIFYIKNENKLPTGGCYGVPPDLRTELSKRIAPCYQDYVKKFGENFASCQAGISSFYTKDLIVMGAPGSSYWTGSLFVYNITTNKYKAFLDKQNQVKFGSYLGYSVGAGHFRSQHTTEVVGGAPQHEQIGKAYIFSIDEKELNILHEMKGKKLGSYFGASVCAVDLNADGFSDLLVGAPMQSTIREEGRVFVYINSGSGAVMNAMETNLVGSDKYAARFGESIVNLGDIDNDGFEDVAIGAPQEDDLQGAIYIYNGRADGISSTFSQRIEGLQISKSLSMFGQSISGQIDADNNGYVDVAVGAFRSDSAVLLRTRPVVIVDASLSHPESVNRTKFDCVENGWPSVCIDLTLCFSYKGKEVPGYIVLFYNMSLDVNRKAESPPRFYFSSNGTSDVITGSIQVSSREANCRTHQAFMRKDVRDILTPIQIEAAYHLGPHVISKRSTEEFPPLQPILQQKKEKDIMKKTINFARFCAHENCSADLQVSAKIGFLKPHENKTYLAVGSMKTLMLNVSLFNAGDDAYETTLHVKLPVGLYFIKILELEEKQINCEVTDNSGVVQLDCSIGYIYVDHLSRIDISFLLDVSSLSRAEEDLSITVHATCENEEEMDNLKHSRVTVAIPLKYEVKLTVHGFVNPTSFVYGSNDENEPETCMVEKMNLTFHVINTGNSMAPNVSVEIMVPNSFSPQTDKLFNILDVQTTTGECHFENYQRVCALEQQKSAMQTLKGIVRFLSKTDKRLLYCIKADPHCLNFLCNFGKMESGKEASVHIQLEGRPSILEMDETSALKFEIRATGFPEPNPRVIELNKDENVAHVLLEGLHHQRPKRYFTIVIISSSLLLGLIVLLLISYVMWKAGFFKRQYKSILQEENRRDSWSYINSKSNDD
T1 sequence (P26010 20-798): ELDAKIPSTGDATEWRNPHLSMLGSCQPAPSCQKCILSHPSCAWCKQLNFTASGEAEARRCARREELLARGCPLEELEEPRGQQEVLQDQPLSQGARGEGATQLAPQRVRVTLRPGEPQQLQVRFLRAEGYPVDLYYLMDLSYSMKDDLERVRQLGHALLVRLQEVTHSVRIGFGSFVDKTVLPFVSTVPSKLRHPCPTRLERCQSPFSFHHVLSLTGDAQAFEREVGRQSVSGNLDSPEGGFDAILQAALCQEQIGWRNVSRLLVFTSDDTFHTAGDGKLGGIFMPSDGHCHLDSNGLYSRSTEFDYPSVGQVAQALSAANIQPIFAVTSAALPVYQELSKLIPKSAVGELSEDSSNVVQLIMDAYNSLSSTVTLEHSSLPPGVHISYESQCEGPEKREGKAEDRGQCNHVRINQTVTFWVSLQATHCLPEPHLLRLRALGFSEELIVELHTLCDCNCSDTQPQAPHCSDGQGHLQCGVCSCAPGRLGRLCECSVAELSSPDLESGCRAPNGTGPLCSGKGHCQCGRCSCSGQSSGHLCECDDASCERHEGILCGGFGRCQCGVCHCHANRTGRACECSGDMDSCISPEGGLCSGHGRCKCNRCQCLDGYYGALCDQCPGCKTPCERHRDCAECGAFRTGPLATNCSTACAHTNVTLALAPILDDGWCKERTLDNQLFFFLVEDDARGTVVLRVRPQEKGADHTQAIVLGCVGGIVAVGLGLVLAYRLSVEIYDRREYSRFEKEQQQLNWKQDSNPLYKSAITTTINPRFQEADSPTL
Experiment: α4β7-MAdCAM Cell Adhesion Assay
Type: cell-based
Conditions: thioether monomer peptides, Table 6; read-out: Cell-Adhesion A4B7
Protocol: α4β7-MAdCAM Cell Adhesion Assay
RPMI 8866 cells (Sigma #95041316) were cultured in RPMI 1640 HEPES medium (Invitrogen #22400-089) supplemented with 10% serum (Fetal Bovine Serum, Invitrogen #16140-071), 1 mM sodium pyruvate (Invitrogen #11360-070), 2 mM L-glutamine (Invitrogen #25030-081) and Penicillin-Streptomycin (Invitrogen #15140-122) at 100 units of penicillin and 100 μg of streptomycin per ml. The cells were washed two times in DMEM medium (ATCC #30-2002) supplemented with 0.1% BSA, 10 mM HEPES pH 7 and 1 mM MnCl2. The cells were re-suspended in supplemented DMEM medium at a density of 4×10^6 cells/ml.
A Nunc MaxiSorp plate was coated with rh MAdCAM-1/Fc Chimera (R&D #6065-MC) at 200 ng per well in 50 ul per well in 1×PBS and incubated at 4° C. overnight. The solution was then removed by shaking, blocked with 250 ul per well PBS containing 1% BSA, and incubated at 37° C. for 1 hr. The solution was removed by shaking. Peptides were diluted by serial dilution in a final volume of 50 ul per well (2× concentration). To each well, 50 ul of cells (200,000 cells) were added and the plate was incubated at 37° C., 5% CO2 for 30-45 min to allow cell adhesion. The wells were washed manually three times (100 ul per wash) with supplemented DMEM. After the final wash, 100 μl/well of supplemented DMEM and 10 ul/well of MTT reagent (ATTC cat #30-1010K) were added. The plate was incubated at 37° C., 5% CO2 for 2-3 hrs until a purple precipitate is visible. 100 ul of Detergent Reagent (ATTC cat #30-1010K) was added to each well. The plate was covered from the light, wrapped in Parafilm to prevent evaporation, and left overnight at room temperature in the dark. The plate was shaken for 5 min and the absorbance at 570 nm is measured. To calculate the dose response, the absorbance value of control wells not containing cells was subtracted from each test well.

Compound	IC50 [nM]
CC(C)C[C@@H]1NC(=O)[C@H]([C@@H](C)O)NC(=O)[C@H](CC(=O)O)NC(=O)[C@H](CO)NC(=O)[C@H](CCCNC(=N)N)N(C)C(=O)c2cccc(c2)CSC(C)(C)[C@@H](C(=O)N[C@@H](Cc2c[nH]c3ccccc23)C(=O)N[C@H](CCC(=O)O)C(=O)N[C@H](CCCCN)C(N)=O)NC1=O [compound 111] (HELM PEPTIDE1{[meR].S.D.T.L.[Pen].W.[dE].[dK].[am]}|CHEM1{[O=C(c1cccc(C[*:2])c1)[*:1]]}$PEPTIDE1,CHEM1,1:R1-1:R1|PEPTIDE1,CHEM1,6:R3-1:R2$$$V2.0)	> 1000

Same assay, conditions: thioether peptide dimers, Table 7; read-out: Cell-Adhesion A4B7

Compound	IC50 [nM]
CC(C)C[C@@H]1NC(=O)[C@H]([C@@H](C)O)NC(=O)[C@H](CC(=O)O)NC(=O)[C@H](CO)NC(=O)[C@H](CCCNC(=N)N)N(C)C(=O)c2ccccc2CSC(C)(C)[C@@H](C(=O)N[C@@H](Cc2c[nH]c3ccccc23)C(=O)N[C@H](CCC(=O)O)C(=O)N[C@H](Cc2c[nH]cn2)C(=O)N[C@H](CCCCN)C(N)=O)NC1=O [compound 199] (HELM PEPTIDE1{[meR].S.D.T.L.[Pen].W.[dE].[dH].[dK].[am]}|CHEM1{[O=C(c1ccccc1C[*:2])[*:1]]}$PEPTIDE1,CHEM1,1:R1-1:R1|PEPTIDE1,CHEM1,6:R3-1:R2$$$V2.0)	< 25
CC(C)C[C@@H]1NC(=O)[C@H]([C@@H](C)O)NC(=O)[C@H](CC(=O)O)NC(=O)[C@H](CO)NC(=O)[C@H](CCCNC(=N)N)N(C)C(=O)c2ccccc2CSC(C)(C)[C@@H](C(=O)N[C@@H](Cc2c[nH]c3ccccc23)C(=O)N[C@H](CCC(=O)O)C(=O)N[C@H](CO)C(=O)N[C@H](CCCCN)C(N)=O)NC1=O [compound 197] (HELM PEPTIDE1{[meR].S.D.T.L.[Pen].W.[dE].[dS].[dK].[am]}|CHEM1{[O=C(c1ccccc1C[*:2])[*:1]]}$PEPTIDE1,CHEM1,1:R1-1:R1|PEPTIDE1,CHEM1,6:R3-1:R2$$$V2.0)	< 25
221 (RSDTLCXK; not fully specified; CROSSLINK - N-term 2-Benzyl with a thioether bond between the N-term and the residue at position 6; MOD_RES 1 N-Methyl Arginine; SITE 7 (3S-)-1,2,3,4-tetrahydroisoquinoline-3-carboxylic acid; SITE 8 D-Lys; SITE 8 C-term OH) [compound 221]	25 to 100
CC(C)C[C@@H]1NC(=O)[C@H]([C@@H](C)O)NC(=O)[C@H](CC(=O)O)NC(=O)[C@H](CO)NC(=O)[C@H](CCCNC(=N)N)N(C)C(=O)c2ccccc2CSC(C)(C)[C@@H](C(=O)N[C@@H](Cc2c[nH]c3ccccc23)C(=O)N[C@@H](Cc2ccc(-c3ccccc3)cc2)C(=O)N[C@H](CCCCN)C(N)=O)NC1=O [compound 202] (HELM PEPTIDE1{[meR].S.D.T.L.[Pen].W.[O=C([C@H](Cc1ccc(-c2ccccc2)cc1)N[*:1])[*:2]].[dK].[am]}|CHEM1{[O=C(c1ccccc1C[*:2])[*:1]]}$PEPTIDE1,CHEM1,1:R1-1:R1|PEPTIDE1,CHEM1,6:R3-1:R2$$$V2.0)	100 to 1000
CC(C)C[C@@H]1NC(=O)[C@H]([C@@H](C)O)NC(=O)[C@H](CC(=O)O)NC(=O)[C@H](CO)NC(=O)[C@H](CCCNC(=N)N)N(C)C(=O)c2ccccc2CSC(C)(C)[C@@H](C(=O)N[C@@H](Cc2c[nH]c3ccccc23)C(=O)N[C@H](CCC(=O)O)C(=O)N[C@@H](Cc2c[nH]cn2)C(=O)N[C@H](CCCCN)C(N)=O)NC1=O [compound 193] (HELM PEPTIDE1{[meR].S.D.T.L.[Pen].W.[dE].H.[dK].[am]}|CHEM1{[O=C(c1ccccc1C[*:2])[*:1]]}$PEPTIDE1,CHEM1,1:R1-1:R1|PEPTIDE1,CHEM1,6:R3-1:R2$$$V2.0)	< 25
CC(C)C[C@@H]1NC(=O)[C@H]([C@@H](C)O)NC(=O)[C@H](CC(=O)O)NC(=O)[C@H](CO)NC(=O)[C@H](CCCNC(=N)N)N(C)C(=O)c2ccccc2CSC(C)(C)[C@@H](C(=O)N[C@@H](Cc2ccccc2)C(=O)N[C@@H](Cc2ccc(-c3ccccc3)cc2)C(=O)N[C@H](CCCCN)C(N)=O)NC1=O [compound 203] (HELM PEPTIDE1{[meR].S.D.T.L.[Pen].F.[O=C([C@H](Cc1ccc(-c2ccccc2)cc1)N[*:1])[*:2]].[dK].[am]}|CHEM1{[O=C(c1ccccc1C[*:2])[*:1]]}$PEPTIDE1,CHEM1,1:R1-1:R1|PEPTIDE1,CHEM1,6:R3-1:R2$$$V2.0)	100 to 1000
CC(C)C[C@@H]1NC(=O)[C@H]([C@@H](C)O)NC(=O)[C@H](CC(=O)O)NC(=O)[C@H](CO)NC(=O)[C@H](CCCNC(=N)N)N(C)C(=O)c2ccccc2CSC(C)(C)[C@@H](C(=O)N[C@@H](Cc2c[nH]c3ccccc23)C(=O)N[C@H](CCC(=O)O)C(=O)N[C@@H](CC(C)C)C(=O)N[C@H](CCCCN)C(N)=O)NC1=O [compound 190] (HELM PEPTIDE1{[meR].S.D.T.L.[Pen].W.[dE].L.[dK].[am]}|CHEM1{[O=C(c1ccccc1C[*:2])[*:1]]}$PEPTIDE1,CHEM1,1:R1-1:R1|PEPTIDE1,CHEM1,6:R3-1:R2$$$V2.0)	< 25
CC(C)C[C@@H]1NC(=O)[C@H]([C@@H](C)O)NC(=O)[C@H](CC(=O)O)NC(=O)[C@H](CO)NC(=O)[C@H](CCCNC(=N)N)N(C)C(=O)CSC(C)(C)[C@@H](C(=O)N[C@@H](Cc2c[nH]c3ccccc23)C(=O)N[C@H](CCCCN)C(N)=O)NC1=O [compound 147]	> 1000
CC(C)C[C@@H]1NC(=O)[C@H]([C@@H](C)O)NC(=O)[C@H](CC(=O)O)NC(=O)[C@H](CO)NC(=O)[C@H](CCCNC(=N)N)N(C)C(=O)c2ccccc2CSC(C)(C)[C@@H](C(=O)N[C@@H](Cc2c[nH]c3ccccc23)C(=O)N[C@H](CCC(=O)O)C(=O)N[C@H](Cc2ccc(O)cc2)C(=O)N[C@H](CCCCN)C(N)=O)NC1=O [compound 201] (HELM PEPTIDE1{[meR].S.D.T.L.[Pen].W.[dE].[dY].[dK].[am]}|CHEM1{[O=C(c1ccccc1C[*:2])[*:1]]}$PEPTIDE1,CHEM1,1:R1-1:R1|PEPTIDE1,CHEM1,6:R3-1:R2$$$V2.0)	< 25
